Test results as given in ChEMBL document CHEMBL2406917, “Phaeolschidins A-E, five hispidin derivatives with antioxidant activity from the fruiting body of Phaeolus schweinitzii collected in the Tibetan Plateau” (J Nat Prod, 2013).
The source made the active and inactive calls. No cut-off for these calls is given here.

Columns and labels:
[1] = Total antioxidant capacity of the compound at 50 uM relative to control; format: physicochemical
[2] = system: Liver; assay: Antioxidant activity against Fe2+/ascorbic acid-induced lipid peroxidation in mouse liver homogenates assessed as total MDA level at 200 uM after 1.5 hrs; format: functional, tissue-based
[3] = system: SW480; assay: Cytotoxicity against human SW480 cells up to 200 uM by MTT assay; format: cell-based
[4] = system: Liver; assay: Antioxidant activity against Fe2+/ascorbic acid-induced lipid peroxidation in mouse liver homogenates after 1.5 hrs; format: functional, tissue-based
[5] = system: HCT-116; assay: Cytotoxicity against human HCT116 cells up to 200 uM by MTT assay; format: cell-based
[6] = Total antioxidant capacity of the compound at 100 uM relative to control; format: physicochemical
[7] = Total antioxidant capacity of the compound at 25 uM relative to control; format: physicochemical
[8] = Total antioxidant capacity of the compound at 200 uM relative to control; format: physicochemical
[9] = system: Radical scavenging activity; assay: Antioxidant activity assessed as DPPH free radical scavenging activity after 30 mins; format: functional

SMILES	TAC [1] [U]	Activity [2]	Activity [3]	IC50 [4] [µM]	Activity [5]	TAC [6] [U]	TAC [7] [U]	TAC [8] [U]	IC50 [9] [µM]
O=c1cc(O)cc(/C=C/c2ccc(O)c(O)c2)o1 [HISPIDIN]	9.27	Active	Non-toxic	> 200	Non-toxic	10.03	5.83	10.25	58.8
CC(C)CC(c1c(O)cc(/C=C/c2ccc(O)c(O)c2)oc1=O)c1c(O)cc(/C=C/c2ccc(O)c(O)c2)oc1=O	5.28	Active	Non-toxic	> 200	Non-toxic	7.6	3.61	10.81	95.9
O=C(O)CCC(c1c(O)cc(/C=C/c2ccc(O)c(O)c2)oc1=O)c1c(O)cc(/C=C/c2ccc(O)c(O)c2)oc1=O	8.41	–	Non-toxic	–	Non-toxic	9.74	6.82	10.74	88.7
O=C1O[C@H]([C@@H](O)CO)C(O)=C1O [ASCORBIC ACID]	17.42	–	–	–	–	18.97	17.33	21.68	–
O=C1CC(c2c(O)cc(/C=C/c3ccc(O)c(O)c3)oc2=O)CN1 (stereo unspecified)	2.78	–	Non-toxic	–	Non-toxic	4.24	2.41	6.91	> 200
COC(=O)CCC(c1c(O)cc(/C=C/c2ccc(O)c(O)c2)oc1=O)c1c(O)cc(/C=C/c2ccc(O)c(O)c2)oc1=O	3.4	–	Non-toxic	–	Non-toxic	6.5	3	11.06	95.3
CC(c1c(O)cc(/C=C/c2ccc(O)c(O)c2)oc1=O)c1c(O)cc(/C=C/c2ccc(O)c(O)c2)oc1=O [PINILLIDINE]	2.67	Active	Non-toxic	> 200	Non-toxic	3.46	2.02	5.16	> 200
CC(C)C(c1c(O)cc(/C=C/c2ccc(O)c(O)c2)oc1=O)c1c(O)cc(/C=C/c2ccc(O)c(O)c2)oc1=O	2.88	Active	Non-toxic	> 200	Non-toxic	4.8	2.1	5.39	> 200
